# Test results reported in patent publication US20250163038A1, “CBL-B MODULATORS AND USES THEREOF” (Nimbus Clio, Inc., priority 2021, published 2025).
# Key:
# [1] = target: Recombinant human Cbl-b (aa 36-427) (Homo sapiens, UniProt Q13191); test: Cbl-b Biochemical Assay (TR-FRET); settings: read-out: TR-FRET hCbl-b IC50
# [2] = system: Jurkat (clone E6-1) cells with NFAT luciferase reporter; test: Jurkat reporter assay (NFAT Luciferase); type: cell-based; settings: Homo sapiens; Jurkat NFAT luciferase reporter cells, anti-CD3 stimulation, 6 hr; read-out: Jurkat NFAT EC50
# [3] = target: T1, Recombinant human c-Cbl (aa 47-435) (Homo sapiens, UniProt P22681); test: c-Cbl Biochemical Assay (TR-FRET); settings: hc-Cbl Biochemical Assay (TR-FRET); read-out: TR-FRET hcCbl IC50
# T1 sequence (P22681 47-435): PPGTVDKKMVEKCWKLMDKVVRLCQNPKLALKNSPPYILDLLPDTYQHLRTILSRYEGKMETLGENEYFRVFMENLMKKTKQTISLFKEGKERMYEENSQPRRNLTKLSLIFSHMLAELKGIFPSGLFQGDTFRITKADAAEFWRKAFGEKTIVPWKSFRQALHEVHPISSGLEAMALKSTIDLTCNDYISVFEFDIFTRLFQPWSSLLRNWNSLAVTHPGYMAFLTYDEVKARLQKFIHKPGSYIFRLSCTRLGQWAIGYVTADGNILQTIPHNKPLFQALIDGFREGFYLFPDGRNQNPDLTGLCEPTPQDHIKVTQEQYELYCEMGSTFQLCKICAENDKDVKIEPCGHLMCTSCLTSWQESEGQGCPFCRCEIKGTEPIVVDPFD
# Sequence of Recombinant human Cbl-b (aa 36-427) (Q13191 36-427): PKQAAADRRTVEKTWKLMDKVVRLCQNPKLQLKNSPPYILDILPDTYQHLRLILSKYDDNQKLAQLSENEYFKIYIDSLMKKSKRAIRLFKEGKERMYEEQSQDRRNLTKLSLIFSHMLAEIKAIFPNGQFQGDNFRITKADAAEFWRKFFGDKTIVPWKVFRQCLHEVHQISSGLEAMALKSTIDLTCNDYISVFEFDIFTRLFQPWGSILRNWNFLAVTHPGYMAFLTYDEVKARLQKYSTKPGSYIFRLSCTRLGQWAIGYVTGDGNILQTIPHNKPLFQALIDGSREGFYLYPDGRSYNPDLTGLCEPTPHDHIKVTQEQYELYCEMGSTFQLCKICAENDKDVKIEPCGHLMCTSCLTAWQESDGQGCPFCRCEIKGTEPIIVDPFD
IC50 [1],EC50 [2],IC50 [3],SMILES
< 200 nM,200 to 1000 nM,1000 to 10000 nM,"Cn1cnnc1-c1cc(F)ccc1-c1cc(C(=O)Nc2cc(CN3CCC4(CC4)C3)cc(C(F)(F)F)c2N)nc(C2CC2)c1 [ABA-1, N-(5-((5-Azaspiro[2.4]heptan-5-yl)methyl)-2-amino-3-(trifluoromethyl)phenyl)-6-cyclopropyl-4-(4-fluoro-2-(4-methyl-4H-1,2,4-triazol-3-yl)phenyl)picolinamide]"
< 200 nM,200 to 1000 nM,200 to 1000 nM,"COc1cc(CNC[C@H]2CCCO2)cc2nc(-c3cccc(-c4ccc(F)cc4-c4nncn4C)c3)oc12 [FR-1, (R)-1-(2-(4′-Fluoro-2′-(4-methyl-4H-1,2,4-triazol-3-yl)-[1,1′-biphenyl]-3-yl)-7-methoxybenzo[d]oxazol-5-yl)-N-((tetrahydrofuran-2-yl)methyl)methanamine]"
< 200 nM,200 to 1000 nM,200 to 1000 nM,"COc1cc(CNC2CCC2)cc2nc(-c3cccc(-c4ccc(F)cc4-c4nncn4C)c3)oc12 [GH-1, N-((2-(4′-Fluoro-2′-(4-methyl-4H-1,2,4-triazol-3-yl)-[1,1′-biphenyl]-3-yl)-7-methoxybenzo[d]oxazol-5-yl)methyl)cyclobutanamine]"
200 to 1000 nM,1000 to 10000 nM,200 to 1000 nM,"COc1cc(CN[C@@H]2CCC[C@]2(C)O)cc2nc(-c3cccc(-c4ccc(F)cc4-c4nncn4C)c3)oc12 [GI-2, (1S,2R)-2-(((2-(4′-Fluoro-2′-(4-methyl-4H-1,2,4-triazol-3-yl)-[1,1′-biphenyl]-3-yl)-7-methoxybenzo[d]oxazol-5-yl)methyl)amino)-1-methylcyclopentan-1-ol, Formic Acid]"
200 to 1000 nM,1000 to 10000 nM,200 to 1000 nM,"Cn1cnnc1-c1cc(C#N)ccc1-c1cc(-c2nc3cc(CN4C[C@@H]5C[C@H]4CO5)cc(F)c3o2)nc(C2CC2)c1 [AGH-4, 4-(2-Cyclopropyl-6-{7-fluoro-5-[(1S,4S)-2-oxa-5-azabicyclo[2.2.1]heptan-5-ylmethyl]-1,3-benzoxazol-2-yl}pyridin-4-yl)-3-(4-methyl-1,2,4-triazol-3-yl)benzonitrile]"
1000 to 10000 nM,1000 to 10000 nM,1000 to 10000 nM,"CCNc1cc(-c2ccc(F)cc2-c2nncn2C)cc(-c2nc3cc(C(=O)OC)cc(C(F)(F)F)c3o2)n1 [AEK-2, Methyl 2-[6-(ethylamino)-4-[4-fluoro-2-(4-methyl-1,2,4-triazol-3-yl)-phenyl]-pyridin-2-yl]-7-(trifluoromethyl)-1,3-benzoxazole-5-carboxylate]"
< 200 nM,< 200 nM,< 200 nM,"Cc1c(F)c(CNCC2(O)CCC2)cc2nc(-c3cc(-c4ccc(F)cc4-c4nncn4C)cc(C4CC4)n3)oc12 [AHJ-1, 1-({[(2-{6-cyclopropyl-4-[4-fluoro-2-(4-methyl-1,2,4-triazol-3-yl)phenyl]pyridin-2-yl}-6-fluoro-7-methyl-1,3-benzoxazol-5-yl)methyl]amino}methyl)cyclobutan-1-ol]"
< 200 nM,< 200 nM,< 200 nM,"Cn1cnnc1-c1cc(F)ccc1-c1cccc(-c2nc3cc(CNC4CC4)cc(C(F)(F)F)c3o2)c1 [HO-2, N-((2-(4′-Fluoro-2′-(4-methyl-4H-1,2,4-triazol-3-yl)-[1,1′-biphenyl]-3-yl)-7-(trifluoromethyl)benzo[d]oxazol-5-yl)methyl)cyclopropanamine]"
< 200 nM,< 200 nM,< 200 nM,"C[C@H](NCc1cc(C(F)(F)F)c2oc(-c3cccc(-c4ccc(F)cc4-c4nncn4C)c3)nc2c1)C1CCC1 [GW-2, (S)-1-Cyclobutyl-N-((2-(4′-fluoro-2′-(4-methyl-4H-1,2,4-triazol-3-yl)-[1,1′-biphenyl]-3-yl)-7-(trifluoromethyl)benzo[d]oxazol-5-yl)methyl)ethan-1-amine]"
< 200 nM,1000 to 10000 nM,1000 to 10000 nM,"CO[C@H]1CCN(Cc2cc(C(F)(F)F)c3oc(-c4cccc(-c5ccc(F)cc5-c5nncn5C)c4)nc3c2)C1 [AB-2, (S)-2-(4′-Fluoro-2′-(4-methyl-4H-1,2,4-triazol-3-yl)-[1,1′-biphenyl]-3-yl)-5-((3-methoxypyrrolidin-1-yl)methyl)-7-(trifluoromethyl)benzo[d]oxazole]"
1000 to 10000 nM,200 to 1000 nM,1000 to 10000 nM,"Cn1cnnc1-c1cc(F)ccc1-c1cccc(-c2nc3cc(C(NCC4CCC4)C(F)(F)F)cc(F)c3o2)c1 (racemic) [IL-6, rac-N-(Cyclobutylmethyl)-2,2,2-trifluoro-1-(7-fluoro-2-(4′-fluoro-2′-(4-methyl-4H-1,2,4-triazol-3-yl)-[1,1′-biphenyl]-3-yl)benzo[d]oxazol-5-yl)ethan-1-amine]"
< 200 nM,200 to 1000 nM,1000 to 10000 nM,"CN(Cc1cc(C(F)(F)F)c2oc(-c3cccc(-c4ccc(F)cc4-c4nncn4C)c3)nc2c1)CC(C)(C)O [AP-2, 1-(((2-(4′-Fluoro-2′-(4-methyl-4H-1,2,4-triazol-3-yl)-[1,1′-biphenyl]-3-yl)-7-(trifluoromethyl)benzo[d]oxazol-5-yl)methyl)(methyl)amino)-2-methylpropan-2-ol]"
< 200 nM,200 to 1000 nM,1000 to 10000 nM,"Cn1cnnc1-c1cc(F)ccc1-c1cccc(-c2nc3cc(CNCC4(O)COC4)cc(C(F)(F)F)c3[nH]2)c1 [BQ-1, 3-((((2-(4′-Fluoro-2′-(4-methyl-4H-1,2,4-triazol-3-yl)-[1,1′-biphenyl]-3-yl)-7-(trifluoromethyl)-1H-benzo[d]imidazol-5-yl)methyl)amino)methyl)oxetan-3-ol]"
< 200 nM,1000 to 10000 nM,200 to 1000 nM,"COc1cc(CN[C@H]2C[C@@H](O)C2)cc2nc(-c3cccc(-c4ccc(F)cc4-c4nncn4C)c3)oc12 [GX-1, (1S,3S)-3-(((2-(4′-Fluoro-2′-(4-methyl-4H-1,2,4-triazol-3-yl)-[1,1′-biphenyl]-3-yl)-7-methoxybenzo[d]oxazol-5-yl)methyl)amino)cyclobutan-1-ol]"
< 200 nM,200 to 1000 nM,< 200 nM,"Cc1cc(CNCC2(F)CCC2)cc2nc(-c3cccc(-c4ccc(F)cc4-c4nncn4C)c3)oc12 [IC-1, 1-(2-(4′-Fluoro-2′-(4-methyl-4H-1,2,4-triazol-3-yl)-[1,1′-biphenyl]-3-yl)-7-methylbenzo[d]oxazol-5-yl)-N-((1-fluorocyclobutyl)methyl)methanamine]"
< 200 nM,< 200 nM,< 200 nM,"COc1cc(CNCC2(O)CCC2)cc2nc(-c3cccc(-c4ccc(F)cc4-c4nncn4C)c3)oc12 [GA-1, 1-((((2-(4′-Fluoro-2′-(4-methyl-4H-1,2,4-triazol-3-yl)-[1,1′-biphenyl]-3-yl)-7-methoxybenzo[d]oxazol-5-yl)methyl)amino)methyl)cyclobutan-1-ol]"
< 200 nM,200 to 1000 nM,1000 to 10000 nM,"Cn1cnnc1-c1cc(F)ccc1-c1cccc(-c2nc3cc(CNCC(C)(C)O)ccc3o2)c1 [AO-2, 1-(((2-(4′-Fluoro-2′-(4-methyl-4H-1,2,4-triazol-3-yl)-[1,1′-biphenyl]-3-yl)benzo[d]oxazol-5-yl)methyl)amino)-2-methylpropan-2-ol]"
< 200 nM,1000 to 10000 nM,1000 to 10000 nM,"Cn1cnnc1-c1cc(F)ccc1-c1cccc(-c2nc3cc(CN4CC[C@H](O)C4)cc(C(F)(F)F)c3o2)c1 [AD-2, (S)-1-((2-(4′-Fluoro-2′-(4-methyl-4H-1,2,4-triazol-3-yl)-[1,1′-biphenyl]-3-yl)-7-(trifluoromethyl)benzo[d]oxazol-5-yl)methyl)pyrrolidin-3-ol]"
< 200 nM,< 200 nM,< 200 nM,"Cn1cnnc1-c1cc(C#N)ccc1-c1cccc(-c2nc3cc(CN[C@@H]4CCC[C@@H]4O)cc(C(F)(F)F)c3o2)c1 [CP-4, 3′-(5-((((1R,2S)-2-Hydroxycyclopentyl)amino)methyl)-7-(trifluoromethyl)benzo[d]oxazol-2-yl)-2-(4-methyl-4H-1,2,4-triazol-3-yl)-[1,1′-biphenyl]-4-carbonitrile]"
< 200 nM,1000 to 10000 nM,200 to 1000 nM,"Cn1cnnc1-c1cc(F)ccc1-c1cccc(-c2nc3cc([C@@H](CO)N4CCC4)cc(C(F)(F)F)c3o2)c1 (single isomer, unassigned) [DO-7]"
< 200 nM,< 200 nM,< 200 nM,"COCCNCc1cc2nc(-c3cc(-c4ccc(F)cc4-c4nncn4C)cc(C4CC4)n3)oc2c(C)c1F [AHG-1, [(2-{6-cyclopropyl-4-[4-fluoro-2-(4-methyl-1,2,4-triazol-3-yl)phenyl]pyridin-2-yl}-6-fluoro-7-methyl-1,3-benzoxazol-5-yl)methyl](2-methoxyethyl)amine]"
< 200 nM,1000 to 10000 nM,1000 to 10000 nM,"C[C@@H]1CN(Cc2cc(C(F)(F)F)c3oc(-c4cccc(-c5ccc(F)cc5-c5nncn5C)c4)nc3c2)CCO1 [Example V-1, (R)-2-(4′-Fluoro-2′-(4-methyl-4H-1,2,4-triazol-3-yl)-[1,1′-biphenyl]-3-yl)-5-((2-methylmorpholino)methyl)-7-(trifluoromethyl)benzo[d]oxazole]"
